Results taken from ChEMBL document CHEMBL3400114, “The design, synthesis and biological evaluation of conformationally restricted 4-substituted-2,6-dimethylfuro[2,3-d]pyrimidines as multi-targeted receptor tyrosine kinase and microtubule inhibitors as potential antitumor agents” (Bioorg Med Chem, 2015).
pEC50, pIC50: −log10 of the molar value.

Key:
A-431 = test: Antiproliferative activity against human A431 cells after 48 hrs by sulforhodamine B assay; type: functional, cell-based; details: A-431, 48 h
[1] = Induction of microtubule depolymerization in rat A10 cells after 18 hrs by indirect immunofluorescence assay; type: cell-based
[2] = Antiangiogenic activity in VEGF-165 and bFGF-stimulated chicken embryo chorioallantoic membrane assessed as inhibition of blood vessel formation after 40 hrs by microscopy; type: functional, tissue-based, Gallus gallus
[3] = target: Epidermal growth factor receptor (Homo sapiens, UniProt P00533); type: cell-based, A-431
[4] = Antiproliferative activity against human SKOV3-MDR1-M6/6 cells overexpressing wild type beta3 tubulin after 48 hrs by sulforhodamine B assay; type: functional, cell-based; details: SKOV3-MDR1-M6/6, 48 h
[5] = target: Vascular endothelial growth factor receptor 2 (Homo sapiens, UniProt P35968); type: cell-based, U-251
[6] = target: Platelet-derived growth factor receptor beta (Homo sapiens, UniProt P09619); test: Inhibition of PDGFR-beta in human U251 cells compound pretreated for 60 min before PDGF-BB stimulation for 10 mins by phosphotyrosine ELISA cytoblot method; type: cell-based, U-251
MDA-MB-435 = test: Antiproliferative activity against human MDA-MB-435 cells after 48 hrs by sulforhodamine B assay; type: functional, cell-based; details: MDA-MB-435, 48 h
[7] = Antiproliferative activity against human SKOV3 cells overexpressing wild type beta3 tubulin after 48 hrs by sulforhodamine B assay; type: functional, cell-based; details: SK-OV-3, 48 h

Sequence of Platelet-derived growth factor receptor beta (P09619 whole entry): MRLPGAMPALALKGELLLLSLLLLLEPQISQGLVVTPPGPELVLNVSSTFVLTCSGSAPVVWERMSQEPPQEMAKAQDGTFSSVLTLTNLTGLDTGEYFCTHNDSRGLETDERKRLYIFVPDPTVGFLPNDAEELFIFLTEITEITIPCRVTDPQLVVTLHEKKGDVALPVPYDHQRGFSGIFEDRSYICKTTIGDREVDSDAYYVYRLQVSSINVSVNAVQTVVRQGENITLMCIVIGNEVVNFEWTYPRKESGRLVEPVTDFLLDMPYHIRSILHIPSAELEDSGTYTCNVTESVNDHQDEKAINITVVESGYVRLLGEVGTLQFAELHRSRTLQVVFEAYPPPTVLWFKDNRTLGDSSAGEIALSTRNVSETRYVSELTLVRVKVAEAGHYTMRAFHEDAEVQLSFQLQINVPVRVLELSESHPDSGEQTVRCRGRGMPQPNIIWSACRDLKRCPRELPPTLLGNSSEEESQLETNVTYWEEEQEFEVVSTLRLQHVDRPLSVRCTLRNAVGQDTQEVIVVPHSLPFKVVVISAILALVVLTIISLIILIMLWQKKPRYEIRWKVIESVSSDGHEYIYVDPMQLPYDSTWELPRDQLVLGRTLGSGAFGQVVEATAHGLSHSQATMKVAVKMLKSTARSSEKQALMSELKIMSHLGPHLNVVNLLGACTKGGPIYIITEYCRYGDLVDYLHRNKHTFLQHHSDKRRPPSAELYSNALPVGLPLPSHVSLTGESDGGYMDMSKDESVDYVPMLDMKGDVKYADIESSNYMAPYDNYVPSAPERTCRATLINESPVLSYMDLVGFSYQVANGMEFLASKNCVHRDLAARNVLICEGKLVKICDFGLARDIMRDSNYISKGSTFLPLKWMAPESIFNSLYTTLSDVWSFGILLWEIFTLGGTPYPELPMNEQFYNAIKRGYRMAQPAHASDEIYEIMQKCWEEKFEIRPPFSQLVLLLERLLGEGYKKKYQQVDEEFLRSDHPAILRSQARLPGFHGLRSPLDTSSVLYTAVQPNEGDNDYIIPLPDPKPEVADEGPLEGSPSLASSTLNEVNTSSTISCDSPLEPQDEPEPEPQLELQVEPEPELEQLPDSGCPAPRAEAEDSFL
Sequence of Vascular endothelial growth factor receptor 2 (P35968 whole entry): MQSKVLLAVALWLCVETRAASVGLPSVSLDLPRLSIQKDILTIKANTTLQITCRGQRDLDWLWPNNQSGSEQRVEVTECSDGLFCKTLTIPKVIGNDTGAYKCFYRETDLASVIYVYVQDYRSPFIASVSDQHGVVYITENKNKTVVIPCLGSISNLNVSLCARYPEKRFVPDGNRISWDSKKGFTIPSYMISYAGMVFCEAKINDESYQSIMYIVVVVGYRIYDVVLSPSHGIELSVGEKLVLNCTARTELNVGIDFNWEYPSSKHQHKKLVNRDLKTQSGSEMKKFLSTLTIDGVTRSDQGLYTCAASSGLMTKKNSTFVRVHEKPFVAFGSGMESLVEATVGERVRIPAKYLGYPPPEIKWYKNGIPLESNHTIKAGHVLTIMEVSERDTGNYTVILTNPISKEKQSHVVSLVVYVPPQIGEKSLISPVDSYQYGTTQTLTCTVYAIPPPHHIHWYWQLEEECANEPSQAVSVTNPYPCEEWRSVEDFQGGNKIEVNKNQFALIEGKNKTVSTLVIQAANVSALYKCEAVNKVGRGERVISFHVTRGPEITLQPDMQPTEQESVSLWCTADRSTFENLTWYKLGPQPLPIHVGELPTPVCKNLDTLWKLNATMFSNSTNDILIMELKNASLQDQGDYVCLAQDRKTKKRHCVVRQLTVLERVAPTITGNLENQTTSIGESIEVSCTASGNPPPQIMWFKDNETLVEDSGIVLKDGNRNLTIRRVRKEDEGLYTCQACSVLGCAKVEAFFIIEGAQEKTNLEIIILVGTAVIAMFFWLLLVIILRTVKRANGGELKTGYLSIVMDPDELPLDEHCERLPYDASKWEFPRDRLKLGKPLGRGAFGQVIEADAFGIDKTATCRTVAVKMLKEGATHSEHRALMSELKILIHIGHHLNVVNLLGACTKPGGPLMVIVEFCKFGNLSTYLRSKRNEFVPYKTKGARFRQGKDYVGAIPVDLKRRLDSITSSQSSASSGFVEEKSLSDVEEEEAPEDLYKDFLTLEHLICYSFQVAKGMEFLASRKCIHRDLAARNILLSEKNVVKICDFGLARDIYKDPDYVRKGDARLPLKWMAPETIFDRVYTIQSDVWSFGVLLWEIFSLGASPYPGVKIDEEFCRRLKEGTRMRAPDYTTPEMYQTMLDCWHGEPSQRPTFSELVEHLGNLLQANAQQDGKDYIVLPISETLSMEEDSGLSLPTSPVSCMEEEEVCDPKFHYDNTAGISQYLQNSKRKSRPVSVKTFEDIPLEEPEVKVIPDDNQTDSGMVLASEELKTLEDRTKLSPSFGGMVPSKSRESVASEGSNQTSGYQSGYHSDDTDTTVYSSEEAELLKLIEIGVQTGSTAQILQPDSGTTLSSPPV
Sequence of Epidermal growth factor receptor (P00533 whole entry): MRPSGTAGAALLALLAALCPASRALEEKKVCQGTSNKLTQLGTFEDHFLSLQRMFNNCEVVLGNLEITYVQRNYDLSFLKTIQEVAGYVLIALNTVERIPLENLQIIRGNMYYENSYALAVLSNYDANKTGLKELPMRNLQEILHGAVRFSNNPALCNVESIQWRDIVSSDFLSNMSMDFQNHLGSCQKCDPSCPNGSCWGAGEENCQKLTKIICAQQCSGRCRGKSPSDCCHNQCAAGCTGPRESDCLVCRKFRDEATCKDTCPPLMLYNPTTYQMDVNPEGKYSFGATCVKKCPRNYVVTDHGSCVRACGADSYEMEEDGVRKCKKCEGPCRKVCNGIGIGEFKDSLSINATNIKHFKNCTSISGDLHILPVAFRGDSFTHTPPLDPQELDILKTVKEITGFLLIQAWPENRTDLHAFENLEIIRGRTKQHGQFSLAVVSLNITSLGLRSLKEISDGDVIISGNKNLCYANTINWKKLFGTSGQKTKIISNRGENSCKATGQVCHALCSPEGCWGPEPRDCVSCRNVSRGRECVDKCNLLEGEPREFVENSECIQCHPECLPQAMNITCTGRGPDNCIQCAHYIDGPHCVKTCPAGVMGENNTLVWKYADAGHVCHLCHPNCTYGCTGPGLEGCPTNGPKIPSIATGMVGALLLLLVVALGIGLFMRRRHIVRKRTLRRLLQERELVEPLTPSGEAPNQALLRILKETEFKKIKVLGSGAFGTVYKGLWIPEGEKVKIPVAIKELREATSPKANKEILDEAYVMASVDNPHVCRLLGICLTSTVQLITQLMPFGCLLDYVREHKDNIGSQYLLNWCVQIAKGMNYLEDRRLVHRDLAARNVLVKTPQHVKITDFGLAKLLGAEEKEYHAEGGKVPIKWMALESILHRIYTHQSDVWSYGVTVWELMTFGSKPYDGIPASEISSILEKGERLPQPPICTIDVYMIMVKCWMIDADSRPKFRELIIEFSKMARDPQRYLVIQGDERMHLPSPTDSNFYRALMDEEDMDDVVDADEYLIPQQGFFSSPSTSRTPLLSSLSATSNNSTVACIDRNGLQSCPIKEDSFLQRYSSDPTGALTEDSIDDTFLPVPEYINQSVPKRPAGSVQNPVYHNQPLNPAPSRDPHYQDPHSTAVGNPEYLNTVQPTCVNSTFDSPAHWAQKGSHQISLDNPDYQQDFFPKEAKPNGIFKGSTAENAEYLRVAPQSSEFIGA

| Compound | pIC50 (A-431) | pEC50 [1] | pIC50 [3] | pIC50 [5] | pIC50 [6] | pIC50 [2] | pIC50 [4] | pIC50 (MDA-MB-435) | pIC50 [7] |
| --- | --- | --- | --- | --- | --- | --- | --- | --- | --- |
| COc1ccc(N(C)c2nc(C)nc3oc(C)cc23)cc1OC | 8.01 |  |  |  |  |  |  |  |  |
| CCOc1ccc(N(C)c2nc(C)nc3oc(C)cc23)cc1 | 7.03 |  | < 6.30 | 6.92 | 6.88 |  | 7.51 |  |  |
| COc1ccc(/C=C\c2cc(OC)c(OC)c(OC)c2)cc1O [COMBRETASTATIN A4] |  | 8.01 |  |  |  |  | 8.52 | 8.30 | 8.16 |
| COc1cc(N(C)c2nc(C)nc3oc(C)cc23)cc(OC)c1OC | < 6.52 | < 5.00 |  |  |  | < 3.52 |  |  |  |

More lines, main results first:

| pIC50 (A-431) | pEC50 [1] | pIC50 [3] | pIC50 [5] | pIC50 [6] | Compound | pIC50 [2] | pIC50 [4] | pIC50 (MDA-MB-435) | pIC50 [7] |
| --- | --- | --- | --- | --- | --- | --- | --- | --- | --- |
| < 6.52 | < 5.00 |  |  |  | COc1ccc2c(ccn2-c2nc(C)nc3oc(C)cc23)c1 | < 3.52 |  |  |  |
| 7.77 |  |  | 7.49 | 7.39 | COc1ccc(N(C)c2nc(C)nc3oc(C)cc23)c(OC)c1 |  |  |  |  |
